Measured values published in patent US12685791B2, “Free PSA antibodies as diagnostics, prognostics and therapeutics for prostate cancer” (Memorial Sloan Kettering Cancer Center, priority 2011, dated 2026).
Where “and” joins values, the source holds several entries; their conditions need not be identical. Equal entries are not always repeated.

Columns and labels:
LNCaP-AR xenografts [1] = assay: Ex vivo biodistribution of 89Zr-5A10, castrate male mice bearing LNCaP-AR xenografts treated with vehicle or MDV3100 (Table 13); assay type: in vivo
Method: All animal experiments were conducted in compliance with Institutional Animal Care and Use Committee (IACUC) guidelines and the Guide for the Care and Use of Laboratory Animals. Male CB-17 SCID mice (6-8 weeks old) were obtained from Taconic Farms Inc. (Hudson, NY), LNCaP-AR, 22Rv1, and PC3 tumors were inoculated in the right flank by sub-cutaneous (s.c.) injection of 1.0×10^6 cells in a 200 μL cell suspension of a 1:1 v/v mixture of media with reconstituted basement membrane (BD Matrigel™, Collaborative Biomedical Products Inc., Bedford, MA). Palpable tumors (50-250 mm^3) developed after a period of 3-7 weeks. Surgical castration and pellet implantation were performed according to known protocols under anesthesia with isoflurane. […]
Tissues were harvested at multiple time points post-injection (p.i.) to determine the kinetics of radiotracer biodistribution (FIG. 3a). […] Animals (n=4-5, per group) were euthanized by CO2 (g) asphyxiation at 1, 4, 12, 24, 48, 72, 96, and 120 h post-injection and 16 tissues (including the tumor) were removed, rinsed in water, dried in air for 5 min., weighed and counted on a gamma-counter for accumulation of ^89Zr-radioactivity. […] Count data were background- and decay-corrected and the tissue uptake measured in units of percentage injected dose per gram (% ID/g) for each sample was calculated by normalization to the total amount of activity injected. […]

LNCaP-AR xenografts [2] = assay: 89Zr-5A10 PET, region-of-interest analysis (SUVmean) of s.c. LNCaP-AR tumors (Table 16); assay type: in vivo, mice
fPSA and tPSA [3] = assay: Tumor PSA ELISA, castrate male mice bearing LNCaP-AR tumors treated with vehicle or MDV3100 (Table 14); assay type: in vivo, human; conditions: for f/t PSA Ratio / fPSA / fPSA/tProtein: tumor, individual mice, listed as MDV
Method: (§1) Mice were injected with ^89Zr-5A10, and at the indicated time point post injection, were sacrificed for PSA analysis. Tumor tissues were surgically excised. fPSA and total PSA (“tPSA”) were determined with PSA-directed ELISA, and the values were normalized to total protein concentration. fPSA concentrations are reported as average ng/ml(a), total PSA (“tPSA”) concentrations are reported as ng/mL (b), and total protein concentrations are reported as ng/mg (c). ELISAs were conducted as follows for PSA detection in serum and tumor tissues. fPSA and tPSA were measured with a dual-label immunofluorometric assay (DELFIA Prostatus™ PSA Free/Total PSA; Perkin-Elmer Life Sciences) according to manufacturer's recommendations. This assay measured fPSA and complexed PSA (cPSA) in an equimolar fashion^8, and the cross-reactivity of PSA-ACT for fPSA was <0.2%^9. […] For detection, the 1235 automatic immunoassay system from Perkin-Elmer Life Sciences was used. cPSA concentrations were calculated by subtracting fPSA from tPSA.
As expected, each dose of MDV3100 inhibited AR signaling and fPSA synthesis (Table 14). Table 14 provides data regarding tumor analysis of PSA expression levels via ELISA in castrate male mice bearing LNCaP-AR tumors treated with antiandrogens. Castrate male mice bearing LNCaP-AR xenografts received a daily oral gavage of vehicle (VEH #), 10 mg/kg (MDV10 #), 40 mg/kg (MDV40 #), or 80 mg/kg (MDV80 #). Six days post manipulation, mice were injected with ^89Zr-5A10. Twenty four hours post injection, mice were sacrificed for PSA analysis. Tumor tissues were surgically excised. fPSA and tPSA were determined with PSA-directed ELISA (as above), and in the case of intratumoral PSA, the values were normalized to total protein concentration. ^afPSA concentrations are reported as ng/ml, ^btotal PSA concentrations are reported as ng/mL, ^ctotal protein concentrations are reported as ng/mg. Abbreviations: fPSA, fPSA; tPSA, total PSA.

[4] = test system: bone remodeling (fractured tibia); assay: Bone fracture model, PET/SPECT of bone remodeling; assay type: in vivo, mice; conditions: PET or SPECT
Method: Osseous tumors were established in intact male mice via injection of LNCaP-AR in the tibia of the left hindlimb as follows. Prior to surgery, […] male SCID mice were anesthetized with ketamine, and an incision was be made in the left hind limb. The tibia was punctured using a bone drill, and 1×10^5 cells (22Rv1 or LNCaP-AR) injected into the marrow. The puncture was closed with bone wax, the incision sutured, and animals received a palliative dose of carprofen (5 mg/kg) once daily for three days post surgery. Tumor development was followed with bioluminescence imaging, and confirmed with MRI. The bone fracture model was prepared similar to the osseous tumor model, excluding injection of cells and application of bone wax.
In FIG. 14c, intact male mice received a fracture in the tibia, and ten days post surgery, bone remodeling was evaluated with ^18F—NaF. A clear region of contrast was identified in the fractured tibia by PET.

fPSA and tPSA [5] = assay: Intratumoral PSA ELISA, castrate male mice bearing LNCaP-AR xenografts, no treatment or testosterone pellet (Table 10); assay type: in vivo, human
Method: as §1
Table 10 provides intratumoral PSA concentrations in castrate male mice bearing LNCaP-AR xenografts, receiving either no manipulation, or a subcutaneous testosterone pellet. […] Twenty four hours post injection, mice were sacrificed for PSA analysis. Tumor tissues were surgically excised. fPSA and tPSA were determined with PSA-directed ELISA (as above), and in the case of intratumoral PSA, the values were normalized to total protein concentration. ^afPSA concentrations are reported as ng/ml, ^btotal PSA concentrations are reported as ng/mL, ^ctotal protein concentrations are reported as ng/mg. Abbreviations: fPSA, fPSA; tPSA, total PSA.

fPSA and tPSA [6] = assay: Tumor PSA ELISA, castrate male mice bearing 22Rv1 tumors, no treatment or testosterone pellet (Table 12); assay type: in vivo, human; conditions: 22Rv1 tumor, individual mice with s.c. testosterone pellet, 7 d
Method: as §1
Twenty four hours post-injection, mice were sacrificed for PSA analysis. […]

[7] = 10 mg/kg daily oral gavage, 10 mg/kg
[8] = 40 mg/kg daily oral gavage, 40 mg/kg
[9] = 80 mg/kg daily oral gavage, 80 mg/kg
[10] = tumor, individual mice with s.c. testosterone pellet, 7 d

For `CNC(=O)c1ccc(N2C(=S)N(c3ccc(C#N)c(C(F)(F)F)c3)C(=O)C2(C)C)cc1F` [MDV3100], which “tumor-associated 89Zr-5A10” value (LNCaP-AR xenografts [1]; 40 and 80 mg/kg dose vs vehicle) is on record?
The value was “significantly decreased”.

And the “effect on localization of 89Zr-5A10 to tumor” value (LNCaP-AR xenografts [1]; daily oral gavage 7 d, 10, 40 or 80 mg/kg)?
Its value is “inhibits”.

And the “tumor-associated 89Zr-5A10 by PET” value (LNCaP-AR xenografts [2]; 80 mg/kg daily oral gavage vs vehicle)?
The value was “statistical changes”.

And the “AR signaling and fPSA synthesis” value (fPSA and tPSA [3]; each dose (10, 40, 80 mg/kg))?
Its value is “inhibited”.

And the “f/t PSA Ratio” value (fPSA and tPSA [3]; [7])?
The value was 0.73 and 0.56 and 0.60 and 0.69.

What about the fPSA (fPSA and tPSA [3]; [7]) of the same compound?
Its fPSA is 19.12 ng/mL and 48.98 ng/mL and 3.96 ng/mL and 474.40 ng/mL.

And the fPSA/tProtein (fPSA and tPSA [3]; [7])?
Its fPSA/tProtein is 3.29 and 7.07 and 0.88 and 51.57.

What about the “f/t PSA Ratio” value (fPSA and tPSA [3]; [8]) of the same compound?
Its value is 0.89 and 0.85 and 0.80.

And the fPSA (fPSA and tPSA [3]; [8])?
Its fPSA is 71.24 ng/mL and 43.25 ng/mL and 98.26 ng/mL.

And the fPSA/tProtein (fPSA and tPSA [3]; [8])?
The fPSA/tProtein was 11.61 and 6.14 and 15.13.

And the “f/t PSA Ratio” value (fPSA and tPSA [3]; [9])?
Its value is 0.57 and 0.69 and 0.59.

What about the fPSA (fPSA and tPSA [3]; [9]) of the same compound?
Its fPSA is 5.97 ng/mL and 77.83 ng/mL and 57.31 ng/mL.

And the fPSA/tProtein (fPSA and tPSA [3]; [9])?
Its fPSA/tProtein is 1.18 and 10.34 and 9.99.

Which “localization to site of bone repair (fractured tibia)” value [4] does the source give for `O.O.O=P([O-])([O-])CP(=O)([O-])[O-].[99Tc+4]` [99mTc-MDP] here?
Its value is “readily localized”.

How did the “localization to site of bone repair (fractured tibia)” value [4] turn out when `[18F-].[Na+]` [18FNaF] was run?
The value was “readily localized”.

With `C[C@]12CC[C@H]3[C@@H](CCC4=CC(=O)CC[C@@]43C)[C@@H]1CC[C@@H]2O` [testosterone] as the compound, how does the “intratumoral PSA levels” value (fPSA and tPSA [5]; s.c. testosterone pellet vs no manipulation) read?
Its value is “increased”.

And the “f/t PSA Ratio” value (fPSA and tPSA [5]; [10])?
Its value is 0.81 and 0.60 and 0.70 and 0.20.

What about the fPSA (fPSA and tPSA [5]; [10]) of the same compound?
The fPSA was 147.77 ng/mL and 424.31 ng/mL and 384.89 ng/mL and 566.42 ng/mL.

What about the fPSA/tProtein (fPSA and tPSA [5]; [10]) of the same compound?
Its fPSA/tProtein is 22.69 and 51.56 and 65.44 and 66.60.

And the “tumor-associated 89Zr-5A10 by PET” value (LNCaP-AR xenografts [2]; s.c. testosterone pellets)?
The value was “significant increase”.

And the fPSA (fPSA and tPSA [6])?
The fPSA was 31.0 ng/mL and 26.8 ng/mL and 29.8 ng/mL and 32.9 ng/mL.

And the fPSA/tProtein (fPSA and tPSA [6])?
Its fPSA/tProtein is 3.60 and 2.84 and 3.44 and 4.19.
